Legend:
Assay type in all cases: in vivo
Conditions in all cases: 0 to 100 scale (0 no effect, 100 complete control)
[1] = test system: ragweed (common ragweed, Ambrosia elatior); test: Test A postemergence, ragweed
From the text: (§1) Test A Seeds of plant species selected from barnyardgrass (Echinochloa crus-galli), kochia (Kochia scoparia), ragweed (common ragweed, Ambrosia elatior), ryegrass, Italian (Lolium multiflorum), foxtail, giant (Setaria faberii), and pigweed (Amaranthus retroflexus), were planted into a blend of loam soil and sand and treated preemergence with a directed soil spray using test chemicals formulated in a non-phytotoxic solvent mixture which included a surfactant.
(§2) At the same time, plants selected from these weed species and also blackgrass (Alopecurus myosuroides), galium (catchweed bedstraw, Galium aparine), wheat (Triticum aestivum), and corn (Zea mays) were planted in pots containing the same blend of loam soil and sand and treated with postemergence applications of test chemicals formulated in the same manner. Plants ranged in height from 2 to 10 cm and were in the one- to two-leaf stage for the postemergence treatment. Treated plants and untreated controls were maintained in a greenhouse for approximately 10 days, after which time all treated plants were compared to untreated controls and visually evaluated for injury. Plant response ratings, summarized in Table A, are based on a 0 to 100 scale where 0 is no effect and 100 is complete control. A dash (-) response means no test result.

[2] = test system: ragweed (common ragweed, Ambrosia elatior); test: Test A preemergence, ragweed
From the text: as §1, §2

[3] = test system: wheat (Triticum aestivum); test: Test A postemergence, wheat
From the text: as §1, §2

[4] = test system: barnyardgrass (Echinochloa crus-galli); test: Test A postemergence, barnyardgrass
From the text: as §1, §2

[5] = test system: ryegrass, Italian (Lolium multiflorum); test: Test A preemergence, Italian ryegrass
From the text: as §1, §2

[6] = test system: barnyardgrass (Echinochloa crus-galli); test: Test A preemergence, barnyardgrass
From the text: as §1, §2

[7] = test system: foxtail, giant (Setaria faberii); test: Test A preemergence, giant foxtail
From the text: as §1, §2

[8] = test system: pigweed (Amaranthus retroflexus); test: Test A postemergence, pigweed
From the text: as §1, §2

kochia (Kochia scoparia) [9] = test: Test A preemergence, kochia
From the text: as §1, §2

corn (Zea mays) = test: Test A postemergence, corn
From the text: as §1, §2

[10] = test system: foxtail, giant (Setaria faberii); test: Test A postemergence, giant foxtail
From the text: as §1, §2

[11] = test system: pigweed (Amaranthus retroflexus); test: Test A preemergence, pigweed
From the text: as §1, §2

[12] = test system: ryegrass, Italian (Lolium multiflorum); test: Test A postemergence, Italian ryegrass
From the text: as §1, §2

[13] = test system: galium (catchweed bedstraw, Galium aparine); test: Test A postemergence, galium
From the text: as §1, §2

kochia (Kochia scoparia) [14] = test: Test A postemergence, kochia
From the text: as §1, §2

[15] = test system: blackgrass (Alopecurus myosuroides); test: Test A postemergence, blackgrass
From the text: as §1, §2

[16] = 125 g ai/ha, visual injury, approximately 10 days
[17] = 500 g ai/ha, visual injury, approximately 10 days

Row | Structure (SMILES) | Plant response rating, Ragweed [1, 16] | Plant response rating, Ragweed ([2]; 125 g ai/ha) | Plant response rating, Wheat [3, 16] | Plant response rating, Barnyardgrass [4, 16] | Plant response rating, Ryegrass, Italian ([5]; 125 g ai/ha) | Plant response rating, Barnyardgrass ([6]; 125 g ai/ha) | Plant response rating, Foxtail, Giant ([7]; 125 g ai/ha) | Plant response rating, Pigweed [8, 16] | Plant response rating, Kochia (kochia (Kochia scoparia) [9]; 125 g ai/ha) | Plant response rating, Corn (corn (Zea mays); [16]) | Plant response rating, Foxtail, Giant [10, 16] | Plant response rating, Pigweed ([11]; 125 g ai/ha) | Plant response rating, Ryegrass, Italian [12, 16] | Plant response rating, Galium [13, 16] | Plant response rating, Kochia (kochia (Kochia scoparia) [14]; [16]) | Plant response rating, Blackgrass [15, 16] | other results
1 | CN1CC(c2cccc(Oc3ncc(F)cc3F)c2)C(C(=O)Nc2cccc(F)c2F)C1=O (single isomer, unassigned) [Compound 73] | 30 | 0 | 20 | 70 | 40 | 90 | 90 | 60 | 20 | 20 | 90 | 0 | 40 | 60 | 20 | 40 | Plant response rating, Ragweed ([1]; 31 g ai/ha): 0; Plant response rating, Ragweed ([2]; 31 g ai/ha): 0; Plant response rating, Wheat ([3]; 31 g ai/ha): 20; Plant response rating, Barnyardgrass ([4]; 31 g ai/ha): 60; Plant response rating, Ryegrass, Italian ([5]; 31 g ai/ha): 0; Plant response rating, Barnyardgrass ([6]; 31 g ai/ha): 50; Plant response rating, Foxtail, Giant ([7]; 31 g ai/ha): 80; Plant response rating, Pigweed ([8]; 31 g ai/ha): 50; Plant response rating, Kochia (kochia (Kochia scoparia) [9]; 31 g ai/ha): 0; Plant response rating, Corn (corn (Zea mays); 31 g ai/ha): 20; Plant response rating, Foxtail, Giant ([10]; 31 g ai/ha): 60; Plant response rating, Pigweed ([11]; 31 g ai/ha): 0; Plant response rating, Ryegrass, Italian ([12]; 31 g ai/ha): 0; Plant response rating, Galium ([13]; 31 g ai/ha): 50; Plant response rating, Kochia (kochia (Kochia scoparia) [14]; 31 g ai/ha): 0; Plant response rating, Blackgrass ([15]; 31 g ai/ha): 0
2 | O=C1NCC(c2cccc(Cn3cccn3)c2)C1C(=O)Nc1ccc(F)cc1F (stereo not shown) [Compound 28] | 0 | 0 | 0 | 0 | 0 | 0 | 0 | 0 | 0 | 0 | 0 | 0 | 0 | 0 | 0 | 0 | Plant response rating, Ragweed [1, 17]: 0; Plant response rating, Ragweed ([2]; 500 g ai/ha): 0; Plant response rating, Wheat [3, 17]: 0; Plant response rating, Barnyardgrass [4, 17]: 20; Plant response rating, Ryegrass, Italian ([5]; 500 g ai/ha): 0; Plant response rating, Barnyardgrass ([6]; 500 g ai/ha): 30; Plant response rating, Foxtail, Giant ([7]; 500 g ai/ha): 30; Plant response rating, Pigweed [8, 17]: 0; Plant response rating, Kochia (kochia (Kochia scoparia) [9]; 500 g ai/ha): 0; Plant response rating, Corn (corn (Zea mays); [17]): 0; Plant response rating, Foxtail, Giant [10, 17]: 20; Plant response rating, Pigweed ([11]; 500 g ai/ha): 0; Plant response rating, Ryegrass, Italian [12, 17]: 0; Plant response rating, Galium [13, 17]: 0; Plant response rating, Kochia (kochia (Kochia scoparia) [14]; [17]): 0; Plant response rating, Blackgrass [15, 17]: 0

Source: patent US10405547B2, “Substituted cyclic amides as herbicides” (FMC Corporation, priority 2015, dated 2019)
